Each structure is given as a SMILES string.

These results are taken from patent US20230183224A1, “BEZOXAZINE DERIVATIVES USEFUL AS MONOACYLGLYCEROL LIPASE INHIBITORS” (Hoffmann-La Roche Inc., priority 2017, published 2023).

The target in the assay is T1, MAGL (recombinant wild-type) (Homo sapiens, UniProt Q99685).
T1 sequence (Q99685 1-303): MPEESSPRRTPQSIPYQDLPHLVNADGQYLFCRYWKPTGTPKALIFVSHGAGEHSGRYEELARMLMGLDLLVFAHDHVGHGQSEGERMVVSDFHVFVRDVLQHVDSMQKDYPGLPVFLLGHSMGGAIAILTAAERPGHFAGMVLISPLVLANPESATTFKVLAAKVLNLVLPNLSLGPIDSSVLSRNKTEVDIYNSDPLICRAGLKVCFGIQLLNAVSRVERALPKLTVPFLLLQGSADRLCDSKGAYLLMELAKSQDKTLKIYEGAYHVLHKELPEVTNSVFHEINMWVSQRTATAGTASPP
Nature of the assay: MAGL inhibitory activity, hydrolysis of 4-nitrophenylacetate to 4-nitrophenol (absorbance at 405 nm). In kind it is biochemical. To be noted: 1 nM MAGL, 300 μM 4-nitrophenylacetate, 15 min preincubation at RT, slope of absorbance at 405 nm between 5 and 80 min. The protocol: Compounds were profiled for MAGL inhibitory activity by measuring the enzymatic activity of MAGL by following the hydrolysis of 4-nitorphenylacetate resulting in 4-nitrophenol, which absorbs at 405-412 nm (G. G. Muccioli, G. Labar, D. M. Lambert, Chem. Bio. Chem. 2008, 9, 2704-2710).
The assay was carried out in 384 well assay plates (black with clear bottom, non-binding surface treated, Corning Ref. 3655) in a total volume of 40 μL. Compound dilutions were made in 100% DMSO (VWR Chemicals 23500.297) in a polypropylene plate in 3-fold dilution steps to give a final concentration range in the assay from 25 μM to 1.7 nM. 1 μL compound dilutions (100% DMSO) were added to 19 μL MAGL (recombinant wild-type) in assay buffer (50 mM TRIS (GIBCO, 15567-027), 1 mM EDTA (Fluka, 03690-100 ml)). The plate was shaked for 1 min at 2000 rpm (Variomag Teleshake) and then incubated for 15 min at RT. To start the reaction, 20 μL 4-Nitrophenlyacetate (Sigma N-8130) in assay buffer with 6% EtOH was added. The final concentrations in the assay were 1 nM MAGL and 300 μM 4-Nitrophenylacetate. After shaking (1 m, 2000 rpm) and 5 min incubation at RT, the absorbance at 405 nm was measured for a first time (Molecular Devices, SpectraMax Paradigm). A second measurement was then done after incubation for 80 min at RT. From the two measurements, the slope was calculated by subtracting the first from the second measurement.

As to `O=C1COc2ccc(C(=O)N3CCC(Oc4ccccc4)C3)cc2N1` (centres unmarked) [Example 18, 6-(3-phenoxypyrrolidine-1-carbonyl)-4H-1,4-benzoxazin-3-one], the half-maximal inhibitory concentration (IC50) was 1040 nM. As for `O=C1COc2ccc(C(=O)N3CCC(N4C[C@@H](c5ccccc5)OC4=O)CC3)cc2N1` [Example 19, 6-[4-[(5R)-2-oxo-5-phenyl-1,3-oxazolidin-3-yl]piperidine-1-carbonyl]-4H-1,4-benzoxazin-3-one], the IC50 came out at 2490 nM. For the compound `N#Cc1ccc(CC2CCN(C(=O)c3ccc4c(c3)NC(=O)CO4)CC2)cc1` [Example 20, 4-[[1-(3-oxo-4H-1,4-benzoxazine-6-carbonyl)piperidin-4-yl]methyl]benzonitrile], the IC50 came out at 370 nM. As to `O=C1COc2ccc(C(=O)N3CCC(Cc4ccccc4-c4ccccc4)CC3)cc2N1` [Example 21, 6-[4-[(2-phenylphenyl)methyl]piperidine-1-carbonyl]-4H-1,4-benzoxazin-3-one], the concentration for half-maximal inhibition (IC50) amounted to 130 nM. As for `O=C1COc2ccc(C(=O)N3CCC(Cc4ccccn4)CC3)cc2N1` [Example 22, 6-[4-(pyridin-2-ylmethyl)piperidine-1-carbonyl]-4H-1,4-benzoxazin-3-one], the IC50 turned out to be 1700 nM. With `O=C1COc2ccc(C(=O)N3CCC(F)(Cc4ccc(Cl)cc4)CC3)cc2N1` [Example 23, 6-[4-[(4-chlorophenyl)methyl]-4-fluoropiperidine-1-carbonyl]-4H-1,4-benzoxazin-3-one] the figure was 300 nM; with `O=C1COc2c(F)cc(C(=O)N3CCC(Cc4ccccc4)CC3)cc2N1` [Example 24, 6-(4-benzylpiperidine-1-carbonyl)-8-fluoro-4H-1,4-benzoxazin-3-one], 140 nM; with `CN(C(=O)c1ccccc1)C1CCN(C(=O)c2ccc3c(c2)NC(=O)CO3)CC1` [Example 25, N-methyl-N-[1-(3-oxo-4H-1,4-benzoxazine-6-carbonyl)piperidin-4-yl]benzamide], 830 nM. In the case of `O=C1COc2ccc(C(=O)N3CCC(Cc4ccccc4)CC3)nc2N1` [Example 26, 6-(4-benzylpiperidine-1-carbonyl)-4H-pyrido[3,2-b][1,4]oxazin-3-one], the IC50 was 2060 nM. Turning to `O=C1COc2ccc(C(=O)N3CCC(C(=O)N4CCCCC4)CC3)cc2N1` [Example 27, 6-[4-(piperidine-1-carbonyl)piperidine-1-carbonyl]-4H-1,4-benzoxazin-3-one], the IC50 is 4240 nM. For `O=C1COc2ccc(C(=O)N3CCC(Cc4ccccc4)C3)cc2N1` (centres unmarked) [Example 28, 6-(3-benzylpyrrolidine-1-carbonyl)-4H-1,4-benzoxazin-3-one], the IC50 was 840 nM. With `O=C1COc2ccc(C(=O)N3CC(Cc4ccc(C(F)(F)F)cc4)C3)cc2N1` [Example 29, 6-[3-[[4-(trifluoromethyl)phenyl]methyl]azetidine-1-carbonyl]-4H-1,4-benzoxazin-3-one] the figure was 150 nM; with `O=C1COc2ccc(C(=O)N3CCC(Cc4cccc(C(F)(F)F)c4)C3)cc2N1` (centres unmarked) [Example 30, 6-[3-[[3-(trifluoromethyl)phenyl]methyl]pyrrolidine-1-carbonyl]-4H-1,4-benzoxazin-3-one], 220 nM; with `O=C1COc2ccc(C(=O)N3CCC(Cc4ccc(C(F)(F)F)cc4)C3)cc2N1` (centres unmarked) [Example 31, 6-[3-[[4-(trifluoromethyl)phenyl]methyl]pyrrolidine-1-carbonyl]-4H-1,4-benzoxazin-3-one], 400 nM.

Regarding `O=C1COc2ccc(C(=O)N3CCN(C(=O)c4ccc(C(F)(F)F)cc4)CC3)cc2N1` [Example 32, 6-[4-[4-(trifluoromethyl)benzoyl]piperazine-1-carbonyl]-4H-1,4-benzoxazin-3-one], the IC50 turned out to be 2180 nM.

`O=C1COc2ccc(C(=O)N3CCC(N(C(=O)Cc4ccccc4)C4CC4)CC3)cc2N1` [Example 33, N-cyclopropyl-N-[1-(3-oxo-4H-1,4-benzoxazine-6-carbonyl)piperidin-4-yl]-2-phenylacetamide]: the IC50 was found to be 310 nM. With `CC1CN(C(=O)c2ccc3c(c2)NC(=O)CO3)CCN1Cc1ccc(C(F)(F)F)cc1` (centres unmarked) [Example 34, 6-[3-methyl-4-[[4-(trifluoromethyl)phenyl]methyl]piperazine-1-carbonyl]-4H-1,4-benzoxazin-3-one] the figure was 449 nM; with `O=C1COc2ccc(C(=O)N3CCN(CCc4cccc(Cl)c4)C(c4cc[nH]n4)C3)cc2N1` (centres unmarked) [Example 35, 6-[4-[2-(3-chlorophenyl)ethyl]-3-(1H-pyrazol-3-yl)piperazine-1-carbonyl]-4H-1,4-benzoxazin-3-one], 1830 nM. As for `O=C1COc2ccc(C(=O)N3CCN(Cc4ccc(C(F)(F)F)cc4)C(C(F)(F)F)C3)cc2N1` (centres unmarked) [Example 36, 6-[3-(trifluoromethyl)-4-[[4-(trifluoromethyl)phenyl]methyl]piperazine-1-carbonyl]-4H-1,4-benzoxazin-3-one], the IC50 is 112 nM. In the case of `O=C1COc2ccc(C(=O)N3CCN(Cc4ccc(C(F)(F)F)cc4)C(c4cc[nH]n4)C3)cc2N1` (centres unmarked) [Example 37, 6-[3-(1H-pyrazol-3-yl)-4-[[4-(trifluoromethyl)phenyl]methyl]piperazine-1-carbonyl]-4H-1,4-benzoxazin-3-one], the IC50 came out at 2250 nM.

The term IC50 denotes the point on the concentration scale where inhibition reaches its midpoint.
